Data as given in ChEMBL document CHEMBL1201862, “PubChem BioAssay data set” (2004).
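Values below derive from 48-hour exposures of cells grown in 96-well plates, with endpoints linearly interpolated between the two concentrations bracketing the appropriate inhibition level. GI50: concentration for 50% inhibition of growth.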 Active and inactive are the calls of the source. Cut-off read from the data, not from the text of the source: active = GI50 up to about 1.1 µM and inactive = higher.

What was measured:
Test in all cases: NCI tumour cell line growth inhibition, 48 h
[1] = tested on: 786-0
[2] = tested on: A498
[3] = tested on: A549
[4] = tested on: ACHN
[5] = tested on: BT-549
[6] = tested on: CAKI-1
[7] = tested on: CCRF-CEM
[8] = tested on: COLO 205
[9] = tested on: DU-145
[10] = tested on: EKVX
[11] = tested on: HCC 2998
[12] = tested on: HCT-116
[13] = tested on: HCT-15
[14] = tested on: HL-60
[15] = tested on: HOP-62
[16] = tested on: HOP-92
[17] = tested on: HT-29
[18] = tested on: Hs-578T
[19] = tested on: IGROV-1
[20] = tested on: K562
[21] = tested on: KM12
[22] = tested on: LOX IMVI
[23] = tested on: M14
[24] = tested on: MCF7
[25] = tested on: MDA-MB-231
[26] = tested on: MDA-MB-435
[27] = tested on: MDA-N
[28] = tested on: MOLT-4
[29] = tested on: Malme-3M
[30] = tested on: NCI-H226
[31] = tested on: NCI-H23
[32] = tested on: NCI-H460
[33] = tested on: NCI-H522
[34] = tested on: NCI/ADR-RES
[35] = tested on: OVCAR-3
[36] = tested on: OVCAR-4
[37] = tested on: OVCAR-5
[38] = tested on: OVCAR-8
[39] = tested on: PC-3
[40] = tested on: RPMI-8226
[41] = tested on: RXF 393
[42] = tested on: SF-268
[43] = tested on: SF-295
[44] = tested on: SF-539
[45] = tested on: SK-MEL-28
[46] = tested on: SK-MEL-2
[47] = tested on: SK-MEL-5
[48] = tested on: SK-OV-3
[49] = tested on: SN12C
[50] = tested on: SNB-19
[51] = tested on: SNB-75
[52] = tested on: SR
[53] = tested on: SW-620
[54] = tested on: T47D
[55] = tested on: TK-10
[56] = tested on: U-251
[57] = tested on: UACC-257
[58] = tested on: UACC-62
[59] = tested on: UO-31
[60] = tested on: DMS-114
[61] = tested on: KM-20L2
[62] = tested on: LXFL 529
[63] = tested on: M19-MEL
[64] = tested on: SNB-78

Q: For `Cc1cccc(C)c1NC(=O)Nc1ccc(S(N)(=O)=O)cc1`, which GI50 [1] is on record?
A: > 100 µM (inactive)

Q: What about the GI50 [2] of the same molecule?
A: > 100 µM (inactive)

Q: And the GI50 [3]?
A: > 100 µM (inactive)

Q: What about the GI50 [4] of the same molecule?
A: > 100 µM (inactive)

Q: What about the GI50 [5] of the same molecule?
A: > 100 µM (inactive)

Q: What about the GI50 [6] of the same molecule?
A: > 100 µM (inactive)

Q: What about the GI50 [7] of the same molecule?
A: > 100 µM (inactive)

Q: What about the GI50 [8] of the same molecule?
A: > 100 µM (inactive)

Q: And the GI50 [9]?
A: > 100 µM (inactive)

Q: And the GI50 [10]?
A: > 100 µM (inactive)

Q: And the GI50 [11]?
A: > 100 µM (inactive)

Q: And the GI50 [12]?
A: > 100 µM (inactive)

Q: And the GI50 [13]?
A: > 100 µM

Q: And the GI50 [14]?
A: > 100 µM (inactive)

Q: What about the GI50 [15] of the same molecule?
A: > 100 µM (inactive)

Q: What about the GI50 [16] of the same molecule?
A: > 100 µM (inactive)

Q: And the GI50 [17]?
A: > 100 µM (inactive)

Q: What about the GI50 [18] of the same molecule?
A: > 100 µM (inactive)

Q: What about the GI50 [19] of the same molecule?
A: > 100 µM (inactive)

Q: And the GI50 [20]?
A: > 100 µM (inactive)

Q: What about the GI50 [21] of the same molecule?
A: > 100 µM (inactive)

Q: And the GI50 [22]?
A: > 100 µM (inactive)

Q: What about the GI50 [23] of the same molecule?
A: > 100 µM (inactive)

Q: What about the GI50 [24] of the same molecule?
A: > 100 µM (inactive)

Q: And the GI50 [25]?
A: > 100 µM (inactive)

Q: And the GI50 [26]?
A: > 100 µM (inactive)

Q: What about the GI50 [27] of the same molecule?
A: > 100 µM (inactive)

Q: And the GI50 [28]?
A: > 100 µM (inactive)

Q: What about the GI50 [29] of the same molecule?
A: > 100 µM (inactive)

Q: And the GI50 [30]?
A: > 100 µM (inactive)

Q: What about the GI50 [31] of the same molecule?
A: > 100 µM (inactive)

Q: What about the GI50 [32] of the same molecule?
A: > 100 µM (inactive)

Q: And the GI50 [33]?
A: > 100 µM (inactive)

Q: And the GI50 [34]?
A: > 100 µM (inactive)

Q: What about the GI50 [35] of the same molecule?
A: > 100 µM (inactive)

Q: And the GI50 [36]?
A: > 100 µM (inactive)

Q: What about the GI50 [37] of the same molecule?
A: > 100 µM (inactive)

Q: What about the GI50 [38] of the same molecule?
A: > 100 µM (inactive)

Q: What about the GI50 [39] of the same molecule?
A: > 100 µM (inactive)

Q: And the GI50 [40]?
A: > 100 µM (inactive)

Q: And the GI50 [41]?
A: > 100 µM (inactive)

Q: And the GI50 [42]?
A: > 100 µM (inactive)

Q: And the GI50 [43]?
A: > 100 µM (inactive)

Q: What about the GI50 [44] of the same molecule?
A: > 100 µM (inactive)

Q: What about the GI50 [45] of the same molecule?
A: > 100 µM (inactive)

Q: And the GI50 [46]?
A: > 100 µM (inactive)

Q: And the GI50 [47]?
A: > 100 µM (inactive)

Q: What about the GI50 [48] of the same molecule?
A: > 100 µM (inactive)

Q: And the GI50 [49]?
A: > 100 µM (inactive)

Q: And the GI50 [50]?
A: > 100 µM (inactive)

Q: What about the GI50 [51] of the same molecule?
A: > 100 µM (inactive)

Q: And the GI50 [52]?
A: > 100 µM (inactive)

Q: And the GI50 [53]?
A: > 100 µM (inactive)

Q: And the GI50 [54]?
A: > 100 µM (inactive)

Q: And the GI50 [55]?
A: > 100 µM (inactive)

Q: And the GI50 [56]?
A: > 100 µM (inactive)

Q: And the GI50 [57]?
A: > 100 µM (inactive)

Q: And the GI50 [58]?
A: > 100 µM (inactive)

Q: And the GI50 [59]?
A: > 100 µM (inactive)

Q: Which results are given for `COC(=O)C(Cc1ccccc1)/N=C/c1c(O)c(O)c(C(C)C)c2cc(C)c(-c3c(C)cc4c(C(C)C)c(O)c(O)c(/C=N/C(Cc5ccccc5)C(=O)OC)c4c3O)c(O)c12` (configuration not stated)?
A: GI50 [4]: 32.1 µM (inactive); GI50 [7]: 7.82 µM (inactive); GI50 [8]: 30.3 µM (inactive); GI50 [60]: > 10 µM (inactive); GI50 [12]: > 10 µM (inactive); GI50 [14]: 18.9 µM (inactive); GI50 [15]: 31.8 µM (inactive); GI50 [16]: 23.8 µM (inactive); GI50 [17]: 17.6 µM (inactive); GI50 [19]: 28.7 µM (inactive); GI50 [20]: 18.7 µM (inactive); GI50 [61]: 20 µM (inactive); GI50 [21]: 16.1 µM (inactive); GI50 [62]: 18 µM (inactive); GI50 [23]: > 10 µM (inactive); GI50 [63]: 36.8 µM (inactive); GI50 [28]: 2.38 µM (inactive); GI50 [29]: 40.6 µM (inactive); GI50 [31]: 26.4 µM (inactive); GI50 [32]: 23 µM (inactive); GI50 [33]: 21.6 µM (inactive); GI50 [35]: 17 µM (inactive); GI50 [36]: 21.3 µM (inactive); GI50 [37]: 15.5 µM (inactive); GI50 [40]: 22.4 µM (inactive); GI50 [41]: 15 µM (inactive); GI50 [42]: 29.5 µM (inactive); GI50 [43]: 15.8 µM (inactive); GI50 [44]: 17 µM (inactive); GI50 [45]: 28.8 µM (inactive); GI50 [46]: 20.9 µM (inactive); GI50 [48]: 23.7 µM (inactive); GI50 [50]: 31.8 µM (inactive); GI50 [51]: 67.9 µM (inactive); GI50 [64]: 6.21 µM (inactive); GI50 [52]: 2.36 µM (inactive); GI50 [56]: 17.3 µM (inactive); GI50 [57]: 21.6 µM (inactive); GI50 [58]: 22.5 µM (inactive); GI50 [59]: 22.3 µM (inactive)

Q: Which results are given for `COc1cc2oc(-c3ccc(O)cc3)c(OC3OC(C)C(O)C(O)C3O)c(=O)c2c(O)c1OC` (configuration not stated)?
A: GI50 [1]: 51.2 µM (inactive); GI50 [2]: > 100 µM (inactive); GI50 [3]: 79.6 µM (inactive); GI50 [4]: 90.8 µM (inactive); GI50 [5]: 62.1 µM (inactive); GI50 [6]: > 100 µM (inactive); GI50 [7]: 35.6 µM (inactive); GI50 [8]: > 100 µM (inactive); GI50 [9]: 99.8 µM (inactive); GI50 [10]: > 100 µM (inactive); GI50 [11]: > 100 µM (inactive); GI50 [12]: 80.4 µM (inactive); GI50 [13]: > 100 µM; GI50 [14]: 32.9 µM (inactive); GI50 [15]: > 100 µM (inactive); GI50 [16]: > 100 µM (inactive); GI50 [17]: > 100 µM (inactive); GI50 [18]: > 100 µM (inactive); GI50 [19]: > 100 µM (inactive); GI50 [20]: 54.3 µM (inactive); GI50 [21]: > 100 µM (inactive); GI50 [22]: 57.7 µM (inactive); GI50 [23]: > 100 µM (inactive); GI50 [24]: 55.7 µM (inactive); GI50 [25]: > 100 µM (inactive); GI50 [26]: > 100 µM (inactive); GI50 [27]: > 100 µM (inactive); GI50 [28]: 33 µM (inactive); GI50 [29]: 96.2 µM (inactive); GI50 [30]: > 100 µM (inactive); GI50 [31]: 36.5 µM (inactive); GI50 [32]: 45.8 µM (inactive); GI50 [33]: 37 µM (inactive); GI50 [34]: 75.5 µM (inactive); GI50 [35]: > 100 µM (inactive); GI50 [36]: 57.8 µM (inactive); GI50 [37]: > 100 µM (inactive); GI50 [38]: 91 µM (inactive); GI50 [39]: > 100 µM (inactive); GI50 [40]: 16.7 µM (inactive); GI50 [41]: > 100 µM (inactive); GI50 [42]: > 100 µM (inactive); GI50 [43]: > 100 µM (inactive); GI50 [44]: > 100 µM (inactive); GI50 [45]: > 100 µM (inactive); GI50 [46]: > 100 µM (inactive); GI50 [47]: 45.1 µM (inactive); GI50 [48]: > 100 µM (inactive); GI50 [49]: > 100 µM (inactive); GI50 [50]: > 100 µM (inactive); GI50 [51]: > 100 µM (inactive); GI50 [52]: 27 µM (inactive); GI50 [53]: 92.7 µM (inactive); GI50 [54]: > 100 µM (inactive); GI50 [55]: > 100 µM (inactive); GI50 [56]: 89.5 µM (inactive); GI50 [57]: > 100 µM (inactive); GI50 [58]: 75.5 µM (inactive)
